Source: paper PMC7429544, “Influence of protein (human galectin-3) design on aspects of lectin activity” (Histochemistry and Cell Biology, 2020)

How the values were obtained:
[1] = target: T1, Gal-3 (full-length wild-type human galectin-3) (Homo sapiens, UniProt P17931); experiment: isothermal titration calorimetry; type: binding; conditions: 25 °C, pH 7.2, 20 mM phosphate, 10 mM NaCl, 2 mM β-mercaptoethanol; one-set-of-sites model; lyophilized protein
T1 construct: gene LGALS3; full-length with N-terminal tail (two Ser phosphorylation sites, nine collagen-like repeats) and CRD; monomeric in solution; biotinylated for tissue sections
T1 sequence (P17931 2-250): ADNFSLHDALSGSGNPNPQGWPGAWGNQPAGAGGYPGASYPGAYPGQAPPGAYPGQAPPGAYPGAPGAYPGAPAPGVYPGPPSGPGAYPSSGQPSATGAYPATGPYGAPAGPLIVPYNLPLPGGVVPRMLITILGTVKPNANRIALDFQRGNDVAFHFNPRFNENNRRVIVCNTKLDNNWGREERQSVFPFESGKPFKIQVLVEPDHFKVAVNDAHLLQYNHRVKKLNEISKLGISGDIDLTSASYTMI
Source text: isothermal titration calorimetry on Gal-3 (full-length wild-type human galectin-3)

[2] = target: T2, Gal-3–8S–Gal-3 (Homo sapiens, UniProt P17931); experiment: isothermal titration calorimetry; type: binding; conditions: 25 °C, pH 7.2, 20 mM phosphate, 10 mM NaCl, 2 mM β-mercaptoethanol; one-set-of-sites model; lyophilized protein
T2 construct: gene LGALS3; engineered covalent homodimer: two Gal-3 CRDs joined by the 33-residue Gal-8S linker peptide in one polypeptide, no tail; recombinant from bacteria
T2 sequence (P17931 114-250 limits assumed): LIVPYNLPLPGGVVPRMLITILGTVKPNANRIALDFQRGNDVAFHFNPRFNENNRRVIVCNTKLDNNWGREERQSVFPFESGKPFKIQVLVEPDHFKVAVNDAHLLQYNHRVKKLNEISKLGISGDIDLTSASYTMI
Source text: isothermal titration calorimetry on Gal-3–8S–Gal-3

[3] = target: T3, Gal-3 CRD (trGal-3) (Homo sapiens, UniProt P17931); experiment: isothermal titration calorimetry; type: binding; conditions: 25 °C, pH 7.2, 20 mM phosphate, 10 mM NaCl, 2 mM β-mercaptoethanol; one-set-of-sites model; lyophilized protein
T3 construct: gene LGALS3; C-terminal carbohydrate recognition domain only, N-terminal tail proteolytically removed; recombinant from bacteria
T3 sequence (P17931 114-250 limits assumed): as above
Source text: isothermal titration calorimetry on Gal-3 CRD (trGal-3)

[4] = target: T4, Gal-3–Gal-3 (Homo sapiens, UniProt P17931); experiment: isothermal titration calorimetry; type: binding; conditions: 25 °C, pH 7.2, 20 mM phosphate, 10 mM NaCl, 2 mM β-mercaptoethanol, one-set-of-sites model, dissolved and dialyzed
T4 construct: gene LGALS3; engineered covalent homodimer: two Gal-3 CRDs fused directly C- to N-terminus in one polypeptide, no tail; recombinant from bacteria
T4 sequence (P17931 114-250 limits assumed): as above
Source text: isothermal titration calorimetry on Gal-3–Gal-3

[5] = target: T4, Gal-3–Gal-3; experiment: inhibition of biotinylated lectin staining, fixed murine jejunum sections; conditions: 0.5 mM Lac as part of glycocluster; labelled lectin 0.25 µg/mL
[6] = target: T1, Gal-3 (full-length wild-type human galectin-3); experiment: as above; conditions: 0.5 mM Lac as part of glycocluster; labelled lectin 4 µg/mL
[7] = target: T5, Gal-3–8S–Gal-1; experiment: isothermal titration calorimetry; type: binding, Homo sapiens; conditions: 25 °C, pH 7.2, 20 mM phosphate, 10 mM NaCl, 2 mM β-mercaptoethanol; one-set-of-sites model; lyophilized protein (first of two preparations)
T5 construct: gene LGALS3; engineered heterodimer in one polypeptide: N-terminal Gal-3 CRD, 33-residue Gal-8S linker, Gal-1 CRD; recombinant from bacteria
Source text: isothermal titration calorimetry on Gal-3–8S–Gal-1

[8] = target: T6, Gal-3–Gal-1; experiment: isothermal titration calorimetry; type: binding, Homo sapiens; conditions: 25 °C, pH 7.2, 20 mM phosphate, 10 mM NaCl, 2 mM β-mercaptoethanol; one-set-of-sites model; protein precipitated, dissolved and dialyzed
T6 construct: gene LGALS3; engineered heterodimer in one polypeptide: N-terminal Gal-3 CRD fused directly to Gal-1 CRD; recombinant from bacteria
Source text: isothermal titration calorimetry on Gal-3–Gal-1

[9] = target: T7, Gal-1–8S–Gal-3; experiment: isothermal titration calorimetry; type: binding, Homo sapiens; conditions: 25 °C, pH 7.2, 20 mM phosphate, 10 mM NaCl, 2 mM β-mercaptoethanol; one-set-of-sites model; lyophilized protein (first of two preparations)
T7 construct: gene LGALS1; engineered heterodimer in one polypeptide: N-terminal Gal-1 CRD, 33-residue Gal-8S linker, Gal-3 CRD; recombinant from bacteria
Source text: isothermal titration calorimetry on Gal-1–8S–Gal-3

[10] = target: T8, Gal-1–Gal-3; experiment: isothermal titration calorimetry; type: binding, Homo sapiens; conditions: 25 °C, pH 7.2, 20 mM phosphate, 10 mM NaCl, 2 mM β-mercaptoethanol; one-set-of-sites model; protein precipitated, dissolved and dialyzed
T8 construct: gene LGALS1; engineered heterodimer in one polypeptide: N-terminal Gal-1 CRD fused directly to Gal-3 CRD; recombinant from bacteria
Source text: isothermal titration calorimetry on Gal-1–Gal-3

Kd [1] [µM] | Kd [2] [µM] | Kd [3] [µM] | Kd ([4]; protein precipitated) [µM] | Kd [7] [µM] | Kd [8] [µM] | Kd [9] [µM] | Kd [10] [µM] | Kd ([4]; protein precipitated with ammonium sulfate) [µM] | Structure (SMILES) | staining inhibition [5] | staining inhibition [6]
222 ± 18.5 | 157 ± 4.69 | 264 ± 13.7 | 288 ± 3.01 |  |  |  |  |  | CC(=O)N[C@H]1C(O)O[C@H](CO)[C@H](O)[C@@H]1O[C@@H]1O[C@H](CO)[C@H](O)[C@H](O)[C@H]1O (some centres unmarked) [Galβ1,3GalNAc] |  | 
 |  |  |  |  |  |  |  |  | OC[C@H]1O[C@@H](O[C@H]2[C@H](O)[C@@H](O)[C@H](n3cc(COc4ccc(C(=C(c5ccc(OCc6cn([C@@H]7O[C@H](CO)[C@@H](O[C@@H]8O[C@H](CO)[C@H](O)[C@H](O)[C@H]8O)[C@H](O)[C@H]7O)nn6)cc5)c5ccc(OCc6cn([C@@H]7O[C@H](CO)[C@@H](O[C@@H]8O[C@H](CO)[C@H](O)[C@H](O)[C@H]8O)[C@H](O)[C@H]7O)nn6)cc5)c5ccc(OCc6cn([C@@H]7O[C@H](CO)[C@@H](O[C@@H]8O[C@H](CO)[C@H](O)[C@H](O)[C@H]8O)[C@H](O)[C@H]7O)nn6)cc5)cc4)nn3)O[C@@H]2CO)[C@H](O)[C@@H](O)[C@H]1O [compound 2] | extent of binding of the Gal-3–Gal-3 homodimer was less potently reduced | Signal for binding of Gal-3 was strongly reduced in cells of the villi
37.5 ± 0.48 | 29.4 ± 0.92 | 45.6 ± 1.64 |  | 60 ± 1.1 | 49.7 ± 0.95 | 48 ± 1.71 | 59 ± 1.45 | 36.2 ± 0.78 | CC(=O)N[C@H]1C(O)O[C@H](CO)[C@@H](O[C@@H]2O[C@H](CO)[C@H](O)[C@H](O)[C@H]2O)[C@@H]1O (some centres unmarked) [LacNAc] |  | 
